These are literature values, as cited in US20230175054A1, “LASH METHODS FOR SINGLE MOLECULE SEQUENCING & TARGET NUCLEIC ACID DETECTION” (SARMAL, INC., priority 2020, published 2023).

One data set deals with T1, Renilla Luciferase (Renilla reniformis, UniProt P27652).
T1 sequence (P27652 1-311): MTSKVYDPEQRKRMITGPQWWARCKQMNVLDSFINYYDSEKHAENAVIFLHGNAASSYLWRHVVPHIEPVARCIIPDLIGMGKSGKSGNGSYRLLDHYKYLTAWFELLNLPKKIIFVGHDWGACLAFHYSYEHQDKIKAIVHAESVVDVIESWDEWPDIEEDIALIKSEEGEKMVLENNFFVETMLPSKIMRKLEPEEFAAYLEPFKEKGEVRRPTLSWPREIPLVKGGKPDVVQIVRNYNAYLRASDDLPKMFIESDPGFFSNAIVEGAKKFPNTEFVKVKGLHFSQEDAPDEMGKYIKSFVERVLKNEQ
Particulars: for λem (nm): luminescence emission with Renilla Luciferase; for Initial Intensity (%) / Total Light (%): with Renilla Luciferase.

Another data set addresses T2, Apoaequorin (Aequorea victoria, UniProt P02592).
T2 sequence (P02592 8-196): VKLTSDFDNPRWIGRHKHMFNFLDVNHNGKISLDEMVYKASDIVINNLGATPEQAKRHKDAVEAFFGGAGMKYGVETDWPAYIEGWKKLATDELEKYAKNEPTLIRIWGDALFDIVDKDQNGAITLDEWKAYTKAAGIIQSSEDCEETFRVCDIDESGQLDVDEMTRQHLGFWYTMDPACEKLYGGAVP
Particulars: for λem (nm): luminescence emission with Apoaequorin; for Half-rise time / Relative intensity / Relative luminescence capacity: with Apoaequorin.

With `Oc1ccc(Cc2nc3c(CC4CCCC4)nc(-c4ccc(O)cc4)cn3c2O)cc1` [Cp, Coelenterazine cp], at Renilla Luciferase, the “λem (nm)” value is 470 nm, the “Initial Intensity (%)” value is given as 135% and the “Total Light (%)” value is listed as 23%. Also, at Apoaequorin, the “λem (nm)” value is 442 nm, the “Half-rise time” value is 0.15 to 0.3 s, the Relative intensity is given as 15 and the Relative luminescence capacity was 0.95.
For `O=c1c(Cc2ccc(I)cc2)nc2c(Cc3ccccc3)[nH]c(-c3ccc(O)cc3)cn1-2` [i, Coelenterazine i], on Apoaequorin, the “λem (nm)” value was 476 nm, the “Half-rise time” value is reported as 8 s, the Relative intensity is 0.03 and the Relative luminescence capacity was 0.70.
Coelenterazine ip: on Apoaequorin, the “λem (nm)” value is on record as 441 nm, the “Half-rise time” value was 1 s, the Relative intensity was 47 and the Relative luminescence capacity is reported as 0.54.
Consider `Oc1ccc(-c2cn3c(O)c(Cc4ccc(F)cc4)nc3c(CC3CCCC3)n2)cc1` [fcp, Coelenterazine fcp], for which, on Apoaequorin, the “λem (nm)” value was 452 nm, the “Half-rise time” value is 0.4 to 0.8 s, the Relative intensity is on record as 135 and the Relative luminescence capacity is on record as 0.57.
For `Oc1ccc(Cc2nc3c(Cc4ccccc4)nc(-c4ccc(O)cc4)cn3c2O)cc1` [Native, Coelenterazine], on Apoaequorin, the “λem (nm)” value is 465 nm, the “Half-rise time” value was 0.4 to 0.8 s, the Relative intensity is on record as 1.00 and the Relative luminescence capacity is 1.0.
For Coelenterazine h, at Apoaequorin, the “λem (nm)” value was 475 nm, the “Half-rise time” value was 0.4 to 0.8 s, the Relative intensity is 10 and the Relative luminescence capacity is given as 0.82.
With Coelenterazine n, on Apoaequorin, the “λem (nm)” value is 467 nm, the “Half-rise time” value is recorded as 5 s, the Relative intensity was 0.01 and the Relative luminescence capacity was 0.26.
`Oc1ccc(-c2cn3c(O)c(Cc4ccccc4)nc3c(CC3CCCC3)n2)cc1` [hcp, Coelenterazine hcp]: on Apoaequorin, the “λem (nm)” value is listed as 444 nm, the Relative intensity was 190 and the Relative luminescence capacity is listed as 0.67.
With Coelenterazine f, on Renilla Luciferase, the “λem (nm)” value was 473 nm, the “Initial Intensity (%)” value was 45% and the “Total Light (%)” value is reported as 28%. In addition, on Apoaequorin, the “λem (nm)” value was 473 nm, the “Half-rise time” value is 0.4 to 0.8 s, the Relative intensity is given as 18 and the Relative luminescence capacity is given as 0.80.
